Source: patent US11618743B2, “Herbicidal compounds” (SYNGENTA PARTICIPATIONS AG, priority 2017, dated 2023)
Like-named read-outs stand apart in the source and are kept apart here.

Experiments:
Format in all cases: in vivo
[1] = system: Digitaria sanguinalis (DIGSA); test: Post-emergence efficacy, Method B; conditions: 360 h, evaluated after 15 days, read-out: Control of weed species after post-emergence application, DIGSA (100=total damage to plant; 0=no damage to plant); for pest or weed control at 1000 g/ha: Application Rate 1000 g/Ha; for pest or weed control at 500 g/ha: Application Rate 500 g/Ha
Procedure: (§1) An “instant formulation”, known as the IF50, containing 50 g/L of the “technical” (i.e. unformulated) active ingredient was prepared by dissolving the active ingredient in a mixture of organic solvents and emulsifier, details of which are provided in the table. This IF50 was then mixed with a small, variable amount of acetone to aid dissolution, before addition of an aqueous solution of 1% v/v ammonium sulphate+1% v/v Empicol ESC70 (Sodium lauryl ether sulphate) adjuvant, as the aqueous diluent, to form an aqueous spray solution which contains a predetermined concentration of the active ingredient (which varies depending on the application rate of the active ingredient to the plants).
(§2) Composition of the mixture of organic solvents and emulsifier used as a base for the instant formulation.
(§3) This aqueous spray solution was then sprayed onto the plants, after about 12 days' cultivation. The plants were grown from seeds sown in standard soil, placed in a glasshouse under controlled conditions (at 24/18° C. or 20/16° C., day/night; 16 hours light; 65% humidity). After spray application the plants were then grown on in a glasshouse under the same conditions and watered twice daily. After 15 days the test was evaluated (100=total damage to plant; 0=no damage to plant).
(§4) Ipomoea hederacea (IPOHE), Euphorbia heterophylla (EPHHL), Chenopodium album (CHEAL), 20 Amaranthus retroflexus (AMARE), Lolium perenne (LOLPE), Digitaria sanguinalis (DIGSA), Eleusine indica (ELEIN), Echinochloa crus-galli (ECHCG), Setaria faberi (SETFA)

Setaria faberi (SETFA) [2] = test: Post-emergence efficacy, Method B; conditions: 360 h, evaluated after 15 days, read-out: Control of weed species after post-emergence application, SETFA (100=total damage to plant; 0=no damage to plant); for pest or weed control at 1000 g/ha: Application Rate 1000 g/Ha; for pest or weed control at 500 g/ha: Application Rate 500 g/Ha
Procedure: as §1, §2, §3, §4

[3] = system: Ipomoea hederacea (IPOHE); test: Post-emergence efficacy, Method B; conditions: 360 h, read-out: Control of weed species after post-emergence application, IPOHE (100=total damage to plant; 0=no damage to plant)
Procedure: as §1, §2, §3, §4

Eleusine indica (ELEIN) = test: Post-emergence efficacy, Method B; conditions: 360 h, read-out: Control of weed species after post-emergence application, ELEIN (100=total damage to plant; 0=no damage to plant)
Procedure: as §1, §2, §3, §4

[4] = system: Euphorbia heterophylla (EPHHL); test: Post-emergence efficacy, Method B; conditions: 360 h, evaluated after 15 days, read-out: Control of weed species after post-emergence application, EPHHL (100=total damage to plant; 0=no damage to plant); for pest or weed control at 1000 g/ha: Application Rate 1000 g/Ha; for pest or weed control at 500 g/ha: Application Rate 500 g/Ha
Procedure: as §1, §2, §3, §4

[5] = system: Chenopodium album (CHEAL); test: Post-emergence efficacy, Method B; conditions: 360 h, read-out: Control of weed species after post-emergence application, CHEAL (100=total damage to plant; 0=no damage to plant)
Procedure: as §1, §2, §3, §4

[6] = system: Amaranthus retroflexus (AMARE); test: Post-emergence efficacy, Method B; conditions: 360 h, evaluated after 15 days, read-out: Control of weed species after post-emergence application, AMARE (100=total damage to plant; 0=no damage to plant); for pest or weed control at 1000 g/ha: Application Rate 1000 g/Ha; for pest or weed control at 500 g/ha: Application Rate 500 g/Ha
Procedure: as §1, §2, §3, §4

[7] = system: Echinochloa crus-galli (ECHCG); test: Post-emergence efficacy, Method B; conditions: 360 h, read-out: Control of weed species after post-emergence application, ECHCG (100=total damage to plant; 0=no damage to plant)
Procedure: as §1, §2, §3, §4

Lolium perenne (LOLPE) = test: Post-emergence efficacy, Method B; conditions: 360 h, read-out: Control of weed species after post-emergence application, LOLPE (100=total damage to plant; 0=no damage to plant)
Procedure: as §1, §2, §3, §4

[8] = system: Digitaria sanguinalis (DIGSA); test: Post-emergence efficacy, Method A; conditions: Application rate 500 g/Ha; evaluated after 13 days; 100=total damage to plant, 0=no damage
How it was run: (§5)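 Plants grown 14 days in pots of standard soil in a glasshouse (24/16 °C day/night, 14 h light, 65% humidity), then sprayed post-emergence with compound formulated in acetone and IF50 and diluted in 0.25% or 1% Empicol ESC70 + 1% ammonium sulphate. Damage scored after 13 days, 0–100 (100 = total damage).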

Setaria faberi (SETFA) [9] = test: Post-emergence efficacy, Method A; conditions: Application rate 500 g/Ha; evaluated after 13 days; 100=total damage to plant, 0=no damage
How it was run: as §5

[10] = system: Echinochloa crus-galli (ECHCG); test: Post-emergence efficacy, Method A; conditions: Application rate 500 g/Ha; evaluated after 13 days; 100=total damage to plant, 0=no damage
How it was run: as §5

[11] = Method B, Application Rate 1000 g/Ha, evaluated after 15 days
[12] = Method B, Application Rate 500 g/Ha, evaluated after 15 days

Compound | pest or weed control at 1000 g/ha [1] [%] | pest or weed control at 1000 g/ha (Setaria faberi (SETFA) [2]) [%] | pest or weed control at 1000 g/ha [3] [%] | pest or weed control at 1000 g/ha (Eleusine indica (ELEIN)) [%] | pest or weed control at 1000 g/ha [4] [%] | pest or weed control at 1000 g/ha [5] [%] | pest or weed control at 1000 g/ha [6] [%] | pest or weed control at 1000 g/ha [7] [%] | pest or weed control at 1000 g/ha (Lolium perenne (LOLPE)) [%] | further results
O=C(O)CC[n+]1ccc(-c2cccnn2)cn1 [Compound A138, 3-(4-pyridazin-3-ylpyridazin-1-ium-1-yl)propanoic acid chloride] | 100 | 100 | 40 | 100 | 100 | 100 | 100 | 100 | 100 | 
O=C([O-])CCC[n+]1ccc(-c2ncccn2)cn1 [Compound A220] | 100 | 30 |  |  | 100 |  | 100 |  |  | pest or weed control at 1000 g/ha [3, 11]: 30%; pest or weed control at 1000 g/ha (Eleusine indica (ELEIN); [11]): 100%; pest or weed control at 1000 g/ha [5, 11]: 90%; pest or weed control at 1000 g/ha [7, 11]: 90%; pest or weed control at 1000 g/ha (Lolium perenne (LOLPE); [11]): 90%
O=S(=O)([O-])CC[n+]1ccc(-c2ccncn2)cn1 [Compound A4] |  |  |  |  |  |  |  |  |  | pest or weed control at 500 g/ha [1]: 100%; pest or weed control at 500 g/ha (Setaria faberi (SETFA) [2]): 40%; pest or weed control at 500 g/ha [3, 12]: 100%; pest or weed control at 500 g/ha (Eleusine indica (ELEIN); [12]): 80%; pest or weed control at 500 g/ha [4]: 100%; pest or weed control at 500 g/ha [5, 12]: 80%; pest or weed control at 500 g/ha [6]: 100%; pest or weed control at 500 g/ha [7, 12]: 70%; pest or weed control at 500 g/ha (Lolium perenne (LOLPE); [12]): 90%
O=S(=O)([O-])CC[n+]1ccc(-c2cccnn2)cn1 [Compound A213, 2-(4-pyridazin-1-ium-3-ylpyridazin-1-ium-1-yl)ethanesulfonate chloride] | 100 | 100 | 80 | 100 | 100 | 80 | 100 | 100 | 90 | 
N[C@H](CC[n+]1ccc(-c2ncccn2)cn1)C(=O)O [Compound A207, [(1R)-1-carboxy-3-(4-pyrimidin-2-ylpyridazin-1-ium-1-yl)propyl]ammonium 2,2,2-trifluoroacetate] | 90 | 100 | 100 | 100 | 70 | 90 | 100 | 100 | 20 | 
Cl.N[C@@H](CCC[n+]1ccc(-c2ncccn2)cn1)C(=O)O.[Cl-] [Compound A211, [(1S)-1-carboxy-4-(4-pyrimidin-2-ylpyridazin-1-ium-1-yl)butyl]ammonium Dichloride] |  |  |  |  |  |  |  |  |  | Control of weed species after post-emergence application, DIGSA [8]: 100; Control of weed species after post-emergence application, SETFA (Setaria faberi (SETFA) [9]): 100; Control of weed species after post-emergence application, ECHCG [10]: 100; pest or weed control at 500 g/ha [1]: 100%; pest or weed control at 500 g/ha (Setaria faberi (SETFA) [2]): 100%; pest or weed control at 500 g/ha [3]: 100%; pest or weed control at 500 g/ha (Eleusine indica (ELEIN)): 100%; pest or weed control at 500 g/ha [4]: 80%; pest or weed control at 500 g/ha [5]: 90%; pest or weed control at 500 g/ha [6]: 100%; pest or weed control at 500 g/ha [7]: 100%; pest or weed control at 500 g/ha (Lolium perenne (LOLPE)): 10%
N#C[N-]C(=O)CC[n+]1ccc(-c2ncccn2)cn1 [Compound A226] | 100 | 70 |  |  |  |  | 100 |  |  | pest or weed control at 1000 g/ha [3, 11]: 100%; pest or weed control at 1000 g/ha [5, 11]: 100%; pest or weed control at 1000 g/ha [7, 11]: 100%; pest or weed control at 1000 g/ha (Lolium perenne (LOLPE); [11]): 70%
O=C(O)CC[n+]1ccc(-c2ccncn2)cn1 [Compound A28] | 100 | 40 | 100 | 100 | 100 | 90 | 100 | 100 | 70 | 
Nc1ccnc(-c2cc[n+](CCC(=O)O)nc2)n1 [Compound A41] | 100 | 100 | 20 | 50 | 100 | 90 | 100 | 100 | 60 | 
